{"source": "patent US10183021B2", "about": "“sGC stimulators” (Ironwood Pharmaceuticals, Inc., priority 2013, dated 2019)", "key": {"obese mice": {"system": "obese mice", "conditions": "cited from earlier work"}, "patients with BMD": {"system": "patients with BMD", "conditions": "single oral dose of 20 mg; cited from earlier work"}, "[1]": {"system": "Guinea pig tracheal smooth muscle", "assay": "Electrical field stimulated guinea pig tracheal smooth muscle contraction", "conditions": "inhibition of EFS-induced guinea pig tracheal smooth muscle contraction; 95% CI 0.78-0.94", "excerpt": "It is possible to assess the bronchodilating effects of sGC stimulators by using the system described below. This system allows us to determine potency, efficacy and duration of action of several sGC stimulators, as well as to assess potential side effects such as blood pressure, or heart rate changes.\nAnimals: Guinea pig, Dunkin Hartley, male, Full barrier-bred and certified free of specific micro-organisms on receipt 525-609 g on the experimental day, Harlan UK Ltd. Guinea pigs are housed in a group of 4 in solid-bottomed cages with Gold Flake bedding in a controlled environment (airflow, temperature and humidity). Food (FD1, Special Diet Services) and water are provided ad libitum.\nOn each experimental day, a guinea pig is killed by exposure to a rising concentration of CO2 and the trachea removed. […] Tissues are washed with Kreb's buffer and stimulated using the previously determined sub-maximal voltage for 1 hour to establish a stable baseline contraction prior to assessment of compound activity.\nA cumulative dose response curve (DRC) to each test substance is then performed and changes in smooth muscle contraction measured. The effect of each test substance in each experiment is expressed as a percentage inhibition of the baseline contraction, normalized to the relevant vehicle controls. […]"}}, "data": [{"compound": "O=C(O)CCCCN(CCc1cc(F)ccc1OCc1ccc(-c2ccc(C(F)(F)F)cc2)cc1)Cc1ccc(C(=O)O)cc1", "note": "[BAY 60-2770]", "values": [{"measurement": "effect on overactive bladder", "setting": "obese mice", "result": "ameliorates overactive bladder in obese mice"}]}, {"compound": "CN1CC(=O)N2[C@H](c3ccc4c(c3)OCO4)c3[nH]c4ccccc4c3C[C@@H]2C1=O", "note": "[tadalafil]", "values": [{"measurement": "blood flow regulation (exercise-induced attenuation of reflex vasoconstriction)", "setting": "patients with BMD", "result": "normal blood flow regulation was restored in eight of nine patients"}]}, {"compound": "CC(C)[N+]1(C)[C@@H]2CC[C@H]1CC(OC(=O)C(CO)c1ccccc1)C2", "note": "(stereo partly drawn) [Ipratropium bromide]", "values": [{"measurement": "IC50", "setting": "[1]", "result": 0.86, "unit": "nM"}]}]}
